Data published in EP3002006A1, “Pharmaceutical composition capable for the incorporation Febuxostat in the crystalline modifications F10, II, G and A” (Bluepharma - Industria Farmacêutica, S.A., priority 2014, dated 2016).
In brackets after ≈: the same amount, converted by molar mass. Where two headings read alike, the source gives them in different places.

Key:
[1] = In-vitro dissolution of tablets, Ph. Eur. 2.9.3 / USP <711> Method 2 (Paddle Apparatus); type: physicochemical; conditions: Figures 2 and 3; same excipient mixture as example 1
Description: The in-vitro dissolution of tablets according to examples 2 to 5 were analyzed according to Ph. […]

[2] = Solubility of crystalline modifications of Febuxostat in phosphate buffer; type: physicochemical

| SMILES | influence on dissolution profile of interchange of crystalline form F10 by another crystalline form [1] | Solubility ([2]; n=3) | Solubility ([2]; aqueous buffer, n=3, read-out: Solubility) [µg/mL] |
| --- | --- | --- | --- |
| Cc1nc(-c2ccc(OCC(C)C)c(C#N)c2)sc1C(=O)O [Form "A", 2-[3-cyano-4-(2-methylpropoxy)phenyl]-4-methylthiazole-5-carboxylic acid] | does not influence the dissolution profile significantly | 0,10 mg/ml | – |
| Cc1nc(-c2ccc(OCC(C)C)c(C#N)c2)sc1C(=O)O [Form "G", 2-[3-cyano-4-(2-methylpropoxy)phenyl]-4-methylthiazole-5-carboxylic acid] | does not influence the dissolution profile significantly | 0,13 mg/ml | – |
| Cc1nc(-c2ccc(OCC(C)C)c(C#N)c2)sc1C(=O)O [Form "F10", 2-[3-cyano-4-(2-methylpropoxy)phenyl]-4-methylthiazole-5-carboxylic acid] | – | – | 260 (≈ 822 µM) |
| Cc1nc(-c2ccc(OCC(C)C)c(C#N)c2)sc1C(=O)O [Form "II", 2-[3-cyano-4-(2-methylpropoxy)phenyl]-4-methylthiazole-5-carboxylic acid] | does not influence the dissolution profile significantly | 0,36 mg/ml | – |
